The structures appear in SMILES notation. Peptide text beside a SMILES is read from it. * marks the point of attachment. 5FAM = O=C1OC2(c3ccc(O)cc3Oc3cc(O)ccc32)c2ccc(C(=O)*)cc21

Test [1] addresses T1, calprotectin tetramer (recombinant B-RCAL, His6-linker-S100A9-linker-S100A8) (Homo sapiens, UniProt P05109).
T1 construct: we used the recombinant protein without removing the His-tag or cleaving the 8-amino acid linker between the two proteins; co-authors' company
T1 sequence (P05109 with tags, fused parts or gaps): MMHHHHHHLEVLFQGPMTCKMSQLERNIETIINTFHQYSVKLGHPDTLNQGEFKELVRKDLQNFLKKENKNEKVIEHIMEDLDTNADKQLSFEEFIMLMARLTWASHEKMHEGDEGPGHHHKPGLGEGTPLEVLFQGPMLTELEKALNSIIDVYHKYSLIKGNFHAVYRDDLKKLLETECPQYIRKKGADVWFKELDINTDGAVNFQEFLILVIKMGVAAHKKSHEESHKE
The test can be described thus: Fluorescence polarization (FP) binding to recombinant calprotectin B-RCAL tetramer in presence of CaCl2. The settings on record: for effect of mutation to alanine on binding: alanine scan of linear peptide 3, found via FP and SPR; for Kd: FP, alanine scan of linear peptide 3, 20 nM peptide, 2 mM CaCl2, one measurement, NB = non-binding. How it is done:
Calprotectin was serially diluted in 20 mM HEPES, 100 mM NaCl, 2 mM CaCl2, pH 7.5, and 1 mM DTT with 0.01% (v/v) Tween-20. Volumes of 16 μL of protein were added to 4 μL of fluorescent peptide (20 nM final concentration) in black 384-well microtiter plates. Fluorescence anisotropy was measured on a microwell plate reader (Infinite M200Pro, Tecan) with filters for excitation at 485 nm and emission at 535 nm. The dissociation constant (Kd) was calculated using a following Eq. (1) using Prism 5 software (GraphPad):1 A=Af+Ab−Af×LT+KD+PT−LT+KD+PT^2−4LTPT/2LT where A is anisotropy, Af and Ab are the anisotropy values for free and bound ligands, respectively. [L]T is the concentration of the total fluorescent ligand and [P]T the concentration of the protein.

The target in test [2] is T2, calprotectin tetramer (recombinant B-RCAL) (Homo sapiens, UniProt P05109).
T2 sequence (P05109 with tags, fused parts or gaps): T1 sequence (P05109 with tags, fused parts or gaps)
As to the kind of experiment: SPR binding level at a single peptide concentration (500 nM). Also noted: we used the recombinant protein without removing the His-tag or cleaving the 8-amino acid linker between the two proteins; co-authors' company. As to conditions: peptides injected at 500 nM, single measurement. An excerpt: Typical immobilization levels were 3000 resonance units (RUs).

`CSCC[C@H](NC(=O)[C@@H]1CCCN1C(=O)[C@H](C)NC(=O)[C@H](C)NC(=O)[C@@H](NC(=O)[C@H](CO)NC(=O)[C@H](CCC(=O)O)NC(=O)[C@@H]1CCCN1C(=O)[C@H](CO)NC(=O)[C@H](CCCNC(=N)N)NC(=O)c1ccc2c(c1)C(=O)OC21c2ccc(O)cc2Oc2cc(O)ccc21)C(C)C)C(=O)N[C@@H](Cc1ccccc1)C(=O)N[C@@H](CCC(N)=O)C(=O)N[C@@H](CO)C(=O)N[C@@H](Cc1c[nH]cn1)C(=O)N[C@@H](Cc1c[nH]c2ccccc12)C(=O)N[C@@H](Cc1ccc(O)cc1)C(=O)N[C@@H](CO)C(=O)NCC(N)=O` [Peptide F8A] (5FAM-RSPESVAAPMFQSHWYSG-NH2): in test [1], the “effect of mutation to alanine on binding” value was “complete loss in binding”. The Response at binding in test [2] was -0.0133 RU. With `CSCC[C@H](NC(=O)[C@@H]1CCCN1C(=O)[C@H](Cc1ccccc1)NC(=O)[C@H](C)NC(=O)[C@@H](NC(=O)[C@H](CO)NC(=O)[C@H](CCC(=O)O)NC(=O)[C@@H]1CCCN1C(=O)[C@H](CO)NC(=O)[C@H](CCCNC(=N)N)NC(=O)c1ccc2c(c1)C(=O)OC21c2ccc(O)cc2Oc2cc(O)ccc21)C(C)C)C(=O)N[C@@H](C)C(=O)N[C@@H](CCC(N)=O)C(=O)N[C@@H](CO)C(=O)N[C@@H](Cc1c[nH]cn1)C(=O)N[C@@H](Cc1c[nH]c2ccccc12)C(=O)N[C@@H](Cc1ccc(O)cc1)C(=O)N[C@@H](CO)C(=O)NCC(N)=O` [Peptide F11A] (5FAM-RSPESVAFPMAQSHWYSG-NH2), the “effect of mutation to alanine on binding” value in test [1] is on record as “complete loss in binding”. Further, the Response at binding in test [2] is listed as -1.75 RU. Regarding `CSCC[C@H](NC(=O)[C@@H]1CCCN1C(=O)[C@H](Cc1ccccc1)NC(=O)[C@H](C)NC(=O)[C@@H](NC(=O)[C@H](CO)NC(=O)[C@H](CCC(=O)O)NC(=O)[C@@H]1CCCN1C(=O)[C@H](CO)NC(=O)[C@H](CCCNC(=N)N)NC(=O)c1ccc2c(c1)C(=O)OC21c2ccc(O)cc2Oc2cc(O)ccc21)C(C)C)C(=O)N[C@@H](Cc1ccccc1)C(=O)N[C@@H](CCC(N)=O)C(=O)N[C@@H](CO)C(=O)N[C@@H](C)C(=O)N[C@@H](Cc1c[nH]c2ccccc12)C(=O)N[C@@H](Cc1ccc(O)cc1)C(=O)N[C@@H](CO)C(=O)NCC(N)=O` [Peptide H14A] (5FAM-RSPESVAFPMFQSAWYSG-NH2), the “effect of mutation to alanine on binding” value in test [1] is “complete loss in binding”. Besides, the Response at binding in test [2] is 10 RU. In the same order, the values of `CC(C)[C@H](NC(=O)[C@H](CO)NC(=O)[C@H](CCC(=O)O)NC(=O)[C@@H]1CCCN1C(=O)[C@H](CO)NC(=O)[C@H](CCCNC(=N)N)NC(=O)c1ccc2c(c1)C(=O)OC21c2ccc(O)cc2Oc2cc(O)ccc21)C(=O)N[C@@H](C)C(=O)N[C@@H](Cc1ccccc1)C(=O)N1CCC[C@H]1C(=O)N[C@@H](C)C(=O)N[C@@H](Cc1ccccc1)C(=O)N[C@@H](CCC(N)=O)C(=O)N[C@@H](CO)C(=O)N[C@@H](Cc1c[nH]cn1)C(=O)N[C@@H](Cc1c[nH]c2ccccc12)C(=O)N[C@@H](Cc1ccc(O)cc1)C(=O)N[C@@H](CO)C(=O)NCC(N)=O` [Peptide M10A] (5FAM-RSPESVAFPAFQSHWYSG-NH2) are “complete loss in binding” and 7 RU. On to `CSCC[C@H](NC(=O)[C@H](C)NC(=O)[C@H](Cc1ccccc1)NC(=O)[C@H](C)NC(=O)[C@@H](NC(=O)[C@H](CO)NC(=O)[C@H](CCC(=O)O)NC(=O)[C@@H]1CCCN1C(=O)[C@H](CO)NC(=O)[C@H](CCCNC(=N)N)NC(=O)c1ccc2c(c1)C(=O)OC21c2ccc(O)cc2Oc2cc(O)ccc21)C(C)C)C(=O)N[C@@H](Cc1ccccc1)C(=O)N[C@@H](CCC(N)=O)C(=O)N[C@@H](CO)C(=O)N[C@@H](Cc1c[nH]cn1)C(=O)N[C@@H](Cc1c[nH]c2ccccc12)C(=O)N[C@@H](Cc1ccc(O)cc1)C(=O)N[C@@H](CO)C(=O)NCC(N)=O` [Peptide P9A] (5FAM-RSPESVAFAMFQSHWYSG-NH2), for which the Kd in test [1] was found to be 30 nM. The same measure, in the same setting: with `CSCC[C@H](NC(=O)[C@@H]1CCCN1C(=O)[C@H](Cc1ccccc1)NC(=O)[C@H](C)NC(=O)[C@@H](NC(=O)[C@H](CO)NC(=O)[C@H](CCC(=O)O)NC(=O)[C@@H]1CCCN1C(=O)[C@H](CO)NC(=O)[C@H](CCCNC(=N)N)NC(=O)c1ccc2c(c1)C(=O)OC21c2ccc(O)cc2Oc2cc(O)ccc21)C(C)C)C(=O)N[C@@H](Cc1ccccc1)C(=O)N[C@@H](C)C(=O)N[C@@H](CO)C(=O)N[C@@H](Cc1c[nH]cn1)C(=O)N[C@@H](Cc1c[nH]c2ccccc12)C(=O)N[C@@H](Cc1ccc(O)cc1)C(=O)N[C@@H](CO)C(=O)NCC(N)=O` [Peptide Q12A] (5FAM-RSPESVAFPMFASHWYSG-NH2) the figure was 27 nM; with `CSCC[C@H](NC(=O)[C@@H]1CCCN1C(=O)[C@H](Cc1ccccc1)NC(=O)[C@H](C)NC(=O)[C@@H](NC(=O)[C@H](CO)NC(=O)[C@H](CCC(=O)O)NC(=O)[C@@H]1CCCN1C(=O)[C@H](CO)NC(=O)[C@H](C)NC(=O)c1ccc2c(c1)C(=O)OC21c2ccc(O)cc2Oc2cc(O)ccc21)C(C)C)C(=O)N[C@@H](Cc1ccccc1)C(=O)N[C@@H](CCC(N)=O)C(=O)N[C@@H](CO)C(=O)N[C@@H](Cc1c[nH]cn1)C(=O)N[C@@H](Cc1c[nH]c2ccccc12)C(=O)N[C@@H](Cc1ccc(O)cc1)C(=O)N[C@@H](CO)C(=O)NCC(N)=O` [Peptide R1A] (5FAM-ASPESVAFPMFQSHWYSG-NH2), 32 nM; with `CSCC[C@H](NC(=O)[C@@H]1CCCN1C(=O)[C@H](Cc1ccccc1)NC(=O)[C@H](C)NC(=O)[C@H](C)NC(=O)[C@H](CO)NC(=O)[C@H](CCC(=O)O)NC(=O)[C@@H]1CCCN1C(=O)[C@H](CO)NC(=O)[C@H](CCCNC(=N)N)NC(=O)c1ccc2c(c1)C(=O)OC21c2ccc(O)cc2Oc2cc(O)ccc21)C(=O)N[C@@H](Cc1ccccc1)C(=O)N[C@@H](CCC(N)=O)C(=O)N[C@@H](CO)C(=O)N[C@@H](Cc1c[nH]cn1)C(=O)N[C@@H](Cc1c[nH]c2ccccc12)C(=O)N[C@@H](Cc1ccc(O)cc1)C(=O)N[C@@H](CO)C(=O)NCC(N)=O` [Peptide V6A] (5FAM-RSPESAAFPMFQSHWYSG-NH2), 39 nM. With `CSCC[C@H](NC(=O)[C@@H]1CCCN1C(=O)[C@H](Cc1ccccc1)NC(=O)[C@H](C)NC(=O)[C@@H](NC(=O)[C@H](CO)NC(=O)[C@H](CCC(=O)O)NC(=O)[C@@H]1CCCN1C(=O)[C@H](CO)NC(=O)[C@H](CCCNC(=N)N)NC(=O)c1ccc2c(c1)C(=O)OC21c2ccc(O)cc2Oc2cc(O)ccc21)C(C)C)C(=O)N[C@@H](Cc1ccccc1)C(=O)N[C@@H](CCC(N)=O)C(=O)N[C@@H](CO)C(=O)N[C@@H](Cc1c[nH]cn1)C(=O)N[C@@H](C)C(=O)N[C@@H](Cc1ccc(O)cc1)C(=O)N[C@@H](CO)C(=O)NCC(N)=O` [Peptide W15A] (5FAM-RSPESVAFPMFQSHAYSG-NH2), the equilibrium dissociation constant (Kd) in test [1] is 24 nM. As to `CSCC[C@H](NC(=O)[C@@H]1CCCN1C(=O)[C@H](Cc1ccccc1)NC(=O)[C@H](C)NC(=O)[C@@H](NC(=O)[C@H](CO)NC(=O)[C@H](CCC(=O)O)NC(=O)[C@@H]1CCCN1C(=O)[C@H](CO)NC(=O)[C@H](CCCNC(=N)N)NC(=O)c1ccc2c(c1)C(=O)OC21c2ccc(O)cc2Oc2cc(O)ccc21)C(C)C)C(=O)N[C@@H](Cc1ccccc1)C(=O)N[C@@H](CCC(N)=O)C(=O)N[C@@H](CO)C(=O)N[C@@H](Cc1c[nH]cn1)C(=O)N[C@@H](Cc1c[nH]c2ccccc12)C(=O)N[C@@H](C)C(=O)N[C@@H](CO)C(=O)NCC(N)=O` [Peptide Y16A] (5FAM-RSPESVAFPMFQSHWASG-NH2), the “effect of mutation to alanine on binding” value in test [1] is given as “complete loss in binding”. In test [2], the Response at binding is listed as 6 RU.

Source of the values: publication PMC10192418, “High-affinity peptides developed against calprotectin and their application as synthetic ligands in diagnostic assays” (Nature Communications, 2023).
